The structures appear in SMILES notation.

The assay has as its system Vaccinia virus. The experiment in a line: Antiviral activity against Vaccinia virus infected in primary rabbit kidney cells assessed as inhibition of virus-induced cytopathogenicity. Format: functional, Orthopoxvirus vaccinia. For orientation: Protection from cytopathic effect is a common read-out in antiviral testing.
Take `N#Cc1cn([C@@H]2O[C@H](CO)[C@@H](O)[C@H]2O)c(=O)[nH]c1=O`: the ID50 is listed as greater than 3.7 ×10⁻⁴ M.
Under `N#Cc1cn([C@H]2C[C@H](O)[C@@H](CO)O2)c(=O)[nH]c1=O` stands 1.6 ×10⁻⁵ M.
The value for `O=c1[nH]c(=O)n([C@H]2C[C@H](O)[C@@H](CO)O2)cc1Br` [BROXURIDINE] was 3.2 ×10⁻⁷ M; that for `O=c1[nH]c(=O)n([C@H]2C[C@H](O)[C@@H](CO)O2)cc1Cl` [CHLORODEOXYURIDINE] was 7.6 ×10⁻⁷ M.
With `O=c1[nH]c(=O)n([C@H]2C[C@H](O)[C@@H](CO)O2)cc1F` [FLOXURIDINE], the ID50 came out at 4 ×10⁻⁷ M.
For `O=c1[nH]c(=O)n([C@H]2C[C@H](O)[C@@H](CO)O2)cc1I` [IDOXURIDINE], the ID50 is listed as 1.1 ×10⁻⁶ M.
`O=c1[nH]c(=O)n([C@H]2C[C@H](O)[C@@H](CO)O2)cc1C(F)(F)F` [TRIFLURIDINE]: the ID50 is reported as 3.3 ×10⁻⁷ M.
In the case of `Nc1ncnc2c1ncn2[C@@H]1O[C@H](CO)[C@@H](O)[C@@H]1O` [VIDARABINE], the ID50 worked out at 1.4 ×10⁻⁶ M.

Values taken from ChEMBL document CHEMBL3244165, “Improved synthesis and in vitro antiviral activities of 5-cyanouridine and 5-cyano-2'-deoxyuridine” (J Med Chem, 1977).
